Patent US20260265267A1, “NOVEL COMPOUNDS WITH MTORC2-INHIBITORY ACTIVITY AND USES THEREOF” (Aliad Biopharma, priority 2023, published 2026)

How the values were obtained:
mTORC1 = target: T1, mTORC1 (Homo sapiens, UniProt P42345); assay: mTORC1 inhibitory activity in HeLa cells (p70S6K Thr389 phosphorylation, Western blot); assay type: cell-based; details: 9 hours; for remaining activity at 40 µM: read-out: pThr389-S6K/S6K (% control)
T1 construct: the following experiments were conducted in HeLa cells; endogenous in cells; host or cells: HeLa
How it was run: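 HeLa cells treated with compounds at 40 μM for 9 hours, lysed in RIPA, and equal protein analysed by Western blot. Phospho-p70S6K (Thr389) signal normalized to total p70S6K and expressed as percent of DMSO vehicle control.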

[1] = tested on: 5×FAD Alzheimer's disease model mice; assay: Y-maze test in 5×FAD mice (short-term memory); assay type: in vivo
Method: (§1) In order to evaluate the efficacy of HN2210, HN2213, and HN2313 on Alzheimer's disease-related symptoms, specifically regarding 1) memory and cognitive impairment, 2) amyloid plaques, 3) neurofibrillary tangles (NFTs), and 4) brain inflammation, an in vivo efficacy assessment of HN2210, HN2213 and HN2313 was conducted using 5×FAD Alzheimer's disease model mice. The 5×FAD mice were purchased from Jackson Lab, USA (Cat #034840-JAX) and crossed once with C57bl6 mice to produce F1 heterozygous offspring (Het). The compound was administered via intraperitoneal injection to 6-month-old 5×FAD Het mice, followed by behavioral testing. The normal control mice, which were littermates of the 5×FAD Het mice, were aged to 6 months and received DMSO injection at the same volume.
Specifically, the Y-maze test was performed using a Y-shaped structure maze made of black acrylic with each arm at a […], and light and a camera were installed on the ceiling, and we measured the number of entries for white mice to freely enter each arm while the surroundings were covered with a curtain. This procedure was used to analyze short-term memory. In order to adapt mice to the environment, they were acclimated to the experimental space for 30 minutes. The mice were placed at one end of the maze and allowed to move freely for 12 minutes. The test was conducted with observation periods divided into 8, 10, and 12 minutes. When all four paws of a mice entered an arm, it was considered as fully entered, and the number of entries into each arm without repetition was recorded. The number of entries into each of the three different arms was divided by the total number of entries into all arms minus 2, and expressed as a percentage.

LC3-II = LC3-II levels in primary cultured cerebral neurons; assay type: cell-based, SD mice; details: for effect on LC3-II: 500 nM or 100 nM, time course to 24 hours; for LC3-II (% control): 24 hours
Method: Specifically, primary neural cells were cultured from the cerebral cortex of E16 embryos of SD […] with a gestational age 16-day (Orient Bio). The extracted brain was separated into the left and right hemispheres, the meninges were removed, and the brains were treated with trypsin in Ca^2+/Mg^2+-free HBSS solution. […] The cells were seeded at a density of 19,000 cells/cm^2 onto 35 mm culture dishes coated with 50 μg/ml poly-D-Lysine (Sigma, P0899) and 1 μg/ml laminin (Invitrogen, 23017-015), and then maintained in neurobasal complete media supplemented with B27 (Gibco, 17504-044) in a 5% CO2 incubator.
Therefore, the evaluation of mTORC2 inhibitory activity in primary cultured cerebral cells was conducted using the same method as in Experimental Example 1, except that each compound was treated at concentrations of 500 nM or 100 nM for 24 hours. The time-dependent changes in Akt Ser473 phosphorylation, Akt Thr308 phosphorylation, and LC3-II levels were measured by Western blot analysis.

[2] = tested on: tau aggregates in the brain of 5×FAD mice; assay: Tau aggregate removal in the brain of 5×FAD mice (AT8 antibody staining); assay type: in vivo; details: 5 mg/kg, 14 days
Method: as §1
In order to assess the neurofibrillary tangle removal effect of HN2210, HN2213, and HN2313 compounds in the brains of Alzheimer's disease model mice, the following test was conducted using 5×FAD-DMSO mice without compound treatment, 5×FAD mice treated with HN2210, HN2213, or HN2313 compounds, and normal mice as controls.
Specifically, AT8 antibody stains hyperphosphorylated Tau protein that constitutes tau aggregates. Therefore, tau aggregates formed in the hippocampus of 5×FAD mouse can be measured using immunostaining with the AT8 antibody. Brain slices were triple-stained with the AT8 antibody, MAP2 which is a neuronal marker, and DAPI to label nuclei, and the dentate gyrus region of the hippocampus was observed under a confocal scanning microscope.

[3] = 5 mg/kg, intraperitoneal, once daily, 14 days (FIG. 5)

| effect on S6K Thr389 phosphorylation (mTORC1; 40 μM) | remaining activity at 40 µM (mTORC1) [%] | increase in S6K Thr389 phosphorylation (mTORC1; 40 μM) [%] | Compound | Y-maze % alternation, % of the normal control level ([1]; 0.2 mg/kg, 14 days (FIG. 8a)) | Y-maze % alternation, increase compared to 5×FAD-DMSO mice ([1]; 0.2 mg/kg, 14 days (FIG. 8a)) [fold] | Y-maze % alternation, % of the normal control level ([1]; 1 mg/kg, 14 days (FIG. 8a)) [%] | Y-maze % alternation, increase compared to 5×FAD-DMSO mice ([1]; 1 mg/kg, 14 days (FIG. 8a)) [fold] | Y-maze % alternation, % of the normal control level ([1]; 5 mg/kg, 14 days (FIG. 8a)) [%] | Y-maze % alternation, increase compared to 5×FAD-DMSO mice ([1]; 5 mg/kg, 14 days (FIG. 8a)) [fold] | Y-maze % alternation, % of the normal control level [1, 3] [%] | Y-maze % alternation, increase compared to 5×FAD-DMSO mice [1, 3] [fold] | effect on LC3-II (LC3-II) | LC3-II (% control) (LC3-II; 500 nM) | reduction of AT8 antibody signals in the dentate gyrus compared to the 5×FAD-DMSO group [2] [%] | LC3-II (% control) (LC3-II; 100 nM) |
| --- | --- | --- | --- | --- | --- | --- | --- | --- | --- | --- | --- | --- | --- | --- | --- |
| no effect | 107 |  | O=C1c2cc(F)c(N3CCOCC3)cc2COc2cc3c(cc21)OCO3 [HN2210, 8-(morpholino)-9-fluoro[2]benzoxepino[3,4-f]-1,3-benzodioxol-11(6H)-one] | approximately 85% | 1.21 | ~82 | 1.17 | ~93 | 1.32 | 93 | 1.25 | markedly increased | 348 | 61 |  |
|  | 54 |  | O=C1c2cc(F)c(NC3CCCC3)cc2COc2cc3c(cc21)OCO3 [HN2313, 8-(cyclopentylamino)-9-fluoro-[1,3]dioxolo[4′,5′:4,5]benzo[1,2-b]benzo[e]oxepin-11(6H)-one] |  |  |  |  |  |  | 90 | 1.2 | not affected |  | 49 | 86 |
|  | 114 | 14 | O=C1c2cc(F)c(NCc3ccccc3)cc2COc2cc3c(cc21)OCO3 [HN2213, 8-(benzylamino)-9-fluoro[2]benzoxepino[3,4-f]-1,3-benzodioxol-11(6H)-one] |  |  |  |  |  |  | 97 | 1.3 | significantly increased | 336 | 59 |  |
